Data from patent US4319028A, “7-(2-(Substituted benzoyl)amino)acetamido)cephalosporins” (Eli Lilly and Company, priority 1976, dated 1982).
≈ marks a conversion by molar mass, not a printed value. Like-named read-outs stand apart in the source and are kept apart here.

Legend:
Pseudomonas Aeruginosa = assay: Antibiotic activity (MIC), Gradient Plate in vitro method, Pseudomonas Aeruginosa; type: cell-based; conditions: read-out: Minimum Inhibitory Concentration
Excerpt: (§1) The values in the table are the minimum inhibitory concentrations (MIC) for the test compounds against the indicated microorganisms. The MIC values were obtained in the Gradient Plate in vitro method for determining antibiotic activity.

Klebsiella pneumoniae = assay: Antibiotic activity (MIC), Gradient Plate in vitro method, Klebsiella pneumoniae; type: cell-based; conditions: read-out: Minimum Inhibitory Concentration
Excerpt: as §1

[1] = tested on: V32 (penicillin resistant Staphylococcus); assay: Antibiotic activity (MIC), Gradient Plate in vitro method, V32; type: cell-based; conditions: read-out: Minimum Inhibitory Concentration
Excerpt: as §1, with “The antibiotic activity of the cephalosporin compounds of the present invention is illustrated by the data presented in Table I for representative compounds. The values” for “The values”
(§2) ^1 Test organisms V41, V32, and V84 are penicillin resistant

Shigella sp. = assay: Antibiotic activity (MIC), Gradient Plate in vitro method, Shigella sp.; type: cell-based; conditions: read-out: Minimum Inhibitory Concentration
Excerpt: as §1, with “The antibiotic activity of the cephalosporin compounds of the present invention is illustrated by the data presented in Table I for representative compounds. The values” for “The values”

Serratia marcescens = assay: Antibiotic activity (MIC), Gradient Plate in vitro method, Serratia marcescens; type: cell-based; conditions: read-out: Minimum Inhibitory Concentration
Excerpt: as §1, with “The antibiotic activity of the cephalosporin compounds of the present invention is illustrated by the data presented in Table I for representative compounds. The values” for “The values”

[2] = tested on: V84 (penicillin resistant Staphylococcus); assay: Antibiotic activity (MIC), Gradient Plate in vitro method, V84; type: cell-based; conditions: read-out: Minimum Inhibitory Concentration
Excerpt: as §1, with “The antibiotic activity of the cephalosporin compounds of the present invention is illustrated by the data presented in Table I for representative compounds. The values” for “The values”
as §2

Titration (pKa) = type: physicochemical; conditions: 66% dmf-34% h2o, titration (66% DMF-34% H2O)
Salmonella heidelberg = assay: Antibiotic activity (MIC), Gradient Plate in vitro method, Salmonella heidelberg; type: cell-based; conditions: Salmonella enterica, read-out: Minimum Inhibitory Concentration
Excerpt: as §1

Escherichia coli = assay: Antibiotic activity (MIC), Gradient Plate in vitro method, Escherichia coli; type: cell-based; conditions: read-out: Minimum Inhibitory Concentration
Excerpt: as §1

[3] = tested on: V41 (penicillin resistant Staphylococcus); assay: Antibiotic activity (MIC), Gradient Plate in vitro method, V41; type: cell-based; conditions: read-out: Minimum Inhibitory Concentration
Excerpt: as §1, with “The antibiotic activity of the cephalosporin compounds of the present invention is illustrated by the data presented in Table I for representative compounds. The values” for “The values”
as §2

[4] = tested on: X466 (methicillin resistant Staphylococcus); assay: Antibiotic activity (MIC), Gradient Plate in vitro method, X466; type: cell-based; conditions: read-out: Minimum Inhibitory Concentration
Excerpt: The antibiotic activity of the cephalosporin compounds of the present invention is illustrated by the data presented in Table I for representative compounds. The values in the table are the minimum inhibitory concentrations (MIC) for the test compounds against the indicated microorganisms. The MIC values were obtained in the Gradient Plate in vitro method for determining antibiotic activity. […]

Aerobacter Aerogenes = assay: Antibiotic activity (MIC), Gradient Plate in vitro method, Aerobacter Aerogenes; type: cell-based; conditions: Klebsiella aerogenes, read-out: Minimum Inhibitory Concentration
Excerpt: as §1

[5] = Gradient Plate in vitro, V32, penicillin resistant Staphylococcus
[6] = Gradient Plate in vitro, V84, penicillin resistant Staphylococcus
[7] = first pKa, read-out: pKa (first value)
[8] = second pKa, read-out: pKa (second value)
[9] = Gradient Plate in vitro, V41, penicillin resistant Staphylococcus

## CC(=O)OCC1=C(C(=O)O)N2C(=O)C(NC(=O)C(NC(=O)c3cccc(O)c3O)c3ccccc3)C2SC1 [Example 19, 7-[D-[2-Phenyl-2-[(2,3-dihydroxybenzoyl)amino]acetyl]-amino]-3-acetoxymethyl-3-cephem-4-carboxylic acid]
Pseudomonas Aeruginosa
  MIC: 56 mg/L (≈ 103 µM)
Klebsiella pneumoniae
  MIC: 7.4 mg/L (≈ 13.7 µM)
[1]; [5]
  MIC: 16.2 mg/L (≈ 29.9 µM)
Shigella sp.
  MIC: 50 mg/L (≈ 92.3 µM)
Serratia marcescens
  MIC: > 200 mg/L
[2]; [6]
  MIC: 14.7 mg/L (≈ 27.1 µM)
Titration (pKa); [7]
  pKa: 5
Titration (pKa); [8]
  pKa: 8.72
Salmonella heidelberg
  MIC: 1 mg/L (≈ 1.85 µM)
Escherichia coli
  MIC: > 200 mg/L
[3]; [9]
  MIC: 17 mg/L (≈ 31.4 µM)
[4]
  MIC: > 200 mg/L
Aerobacter Aerogenes
  MIC: > 200 mg/L

## Cn1nnnc1SCC1=C(C(=O)O)N2C(=O)C(NC(=O)[C@H](NC(=O)c3ccccc3O)c3ccc(O)cc3)C2SC1 (stereo partly drawn) [Example 4, 7-[D-[2-(4-Hydroxyphenyl)-2-[(2-hydroxybenzoyl)amino]acetyl]amino]-3-[[(1-methyltetrazol-5-yl)thio]methyl]-3-cephem-4-carboxylic acid]
Pseudomonas Aeruginosa
  MIC: 104 mg/L (≈ 174 µM)
Klebsiella pneumoniae
  MIC: 29 mg/L (≈ 48.5 µM)
[1]; Staphylococcus
  MIC: 4 mg/L (≈ 6.69 µM)
Shigella sp.
  MIC: 33 mg/L (≈ 55.2 µM)
Serratia marcescens
  MIC: > 200 mg/L
[2]; [6]
  MIC: 2.2 mg/L (≈ 3.68 µM)
Titration (pKa); [7]
  pKa: 5.09
Titration (pKa); [8]
  pKa: 10
Salmonella heidelberg
  MIC: 32.5 mg/L (≈ 54.4 µM)
Escherichia coli
  MIC: 60 mg/L (≈ 100 µM)
[3]; [9]
  MIC: 4.6 mg/L (≈ 7.7 µM)
[4]
  MIC: 41 mg/L (≈ 68.6 µM)
Aerobacter Aerogenes
  MIC: 49 mg/L (≈ 82 µM)

## Cn1c(SCC2=C(C(=O)O)N3C(=O)C(NC(=O)[C@H](NC(=O)c4cccc(O)c4O)c4ccc(O)cc4)C3SC2)nnc(O)c1=O (stereo partly drawn) [Example 9, 7-[D-[2-(4-Hydroxyphenyl)-2-[(2,3-dihydroxybenzoyl)-amino]acetyl]amino]-3-[[(4,5-dihydro-6-hydroxy-4-methyl-5-oxo-1,2,4-triazin-3-yl)thio]methyl]-3-cephem-4-carboxylic acid]
Pseudomonas Aeruginosa
  MIC: 124 mg/L (≈ 189 µM)
Klebsiella pneumoniae
  MIC: 3.9 mg/L (≈ 5.94 µM)
[1]; [5]
  MIC: 14 mg/L (≈ 21.3 µM)
Shigella sp.
  MIC: 8 mg/L (≈ 12.2 µM)
Serratia marcescens
  MIC: > 200 mg/L
[2]; [6]
  MIC: 11.6 mg/L (≈ 17.7 µM)
Titration (pKa); [7]
  pKa: 4.99
Titration (pKa); [8]
  pKa: 8.89
Salmonella heidelberg
  MIC: 1 mg/L (≈ 1.52 µM)
Escherichia coli
  MIC: 22.5 mg/L (≈ 34.3 µM)
[3]; [9]
  MIC: 16.2 mg/L (≈ 24.7 µM)
[4]
  MIC: > 200 mg/L
Aerobacter Aerogenes
  MIC: 11 mg/L (≈ 16.8 µM)

## Cn1nnnc1SCC1=C(C(=O)O)N2C(=O)C(NC(=O)[C@H](NC(=O)c3cc(O)ccc3O)c3ccc(O)cc3)C2SC1 (stereo partly drawn) [Example 15, 7-[D-[2-(4-Hydroxyphenyl)-2-[(2,5-dihydroxybenzoyl)-amino]acetyl]amino]-3-[[(1-methyltetrazol-5-yl)thio]-methyl]-3-cephem-4-carboxylic acid]
Pseudomonas Aeruginosa
  MIC: > 200 mg/L
Klebsiella pneumoniae
  MIC: 32.2 mg/L (≈ 52.5 µM)
[1]; [5]
  MIC: 13 mg/L (≈ 21.2 µM)
Shigella sp.
  MIC: 26.5 mg/L (≈ 43.2 µM)
Serratia marcescens
  MIC: > 200 mg/L
[2]; [6]
  MIC: 10 mg/L (≈ 16.3 µM)
Titration (pKa); [7]
  pKa: 5.08
Titration (pKa); [8]
  pKa: 11
Titration (pKa); third pKa, read-out: pKa (third value)
  pKa: 12.5
Salmonella heidelberg
  MIC: 17.8 mg/L (≈ 29 µM)
Escherichia coli
  MIC: 28 mg/L (≈ 45.6 µM)
[3]; [9]
  MIC: 15 mg/L (≈ 24.4 µM)
[4]
  MIC: > 200 mg/L
Aerobacter Aerogenes
  MIC: 43.5 mg/L (≈ 70.9 µM)

## Cc1nnc(SCC2=C(C(=O)O)N3C(=O)C(NC(=O)[C@H](NC(=O)c4ccc(O)c(Cl)c4)c4ccc(O)cc4)C3SC2)s1 (stereo partly drawn) [Example 11, 7-[D-[2-(4-Hydroxyphenyl)-2-[(3-chloro-4-hydroxybenzoyl)-amino]acetyl]amino]-3-[[(5-methyl-1,3,4-thiadiazol-2-yl)-thio]methyl]-3-cephem-4-carboxylic acid]
Pseudomonas Aeruginosa
  MIC: 124 mg/L (≈ 191 µM)
Klebsiella pneumoniae
  MIC: 8.9 mg/L (≈ 13.7 µM)
[1]; [5]
  MIC: 1.1 mg/L (≈ 1.7 µM)
Shigella sp.
  MIC: 9.6 mg/L (≈ 14.8 µM)
Serratia marcescens
  MIC: 80 mg/L (≈ 123 µM)
[2]; Staphylococcus
  MIC: 1 mg/L (≈ 1.54 µM)
Titration (pKa); [7]
  pKa: 4.9
Titration (pKa); [8]
  pKa: 9.5
Salmonella heidelberg
  MIC: 25 mg/L (≈ 38.6 µM)
Escherichia coli
  MIC: 11.2 mg/L (≈ 17.3 µM)
[3]; Staphylococcus
  MIC: 1 mg/L (≈ 1.54 µM)
[4]
  MIC: 122 mg/L (≈ 188 µM)
Aerobacter Aerogenes
  MIC: 36.8 mg/L (≈ 56.8 µM)

## Cc1nnc(SCC2=C(C(=O)O)N3C(=O)C(NC(=O)[C@H](NC(=O)c4cc(O)c(O)c(O)c4)c4ccc(O)cc4)C3SC2)s1 (stereo partly drawn) [Example 6, 7-[D-[2-(4-Hydroxyphenyl)-2-[(3,4,5-trihydroxybenzoyl)-amino]acetyl]amino]-3-[[(5-methyl-1,3,4-thiadiazol-2-yl)thio]methyl]-3-cephem-4-carboxylic acid]
Pseudomonas Aeruginosa
  MIC: 6 mg/L (≈ 9.29 µM)
Klebsiella pneumoniae
  MIC: 3.9 mg/L (≈ 6.04 µM)
[1]; [5]
  MIC: 8.6 mg/L (≈ 13.3 µM)
Shigella sp.
  MIC: 5.8 mg/L (≈ 8.98 µM)
Serratia marcescens
  MIC: > 200 mg/L
[2]; [6]
  MIC: 3.2 mg/L (≈ 4.96 µM)
Titration (pKa); [7]
  pKa: 4.88
Salmonella heidelberg
  MIC: 0.7 mg/L (≈ 1.08 µM)
Escherichia coli
  MIC: 21.7 mg/L (≈ 33.6 µM)
[3]; [9]
  MIC: 6.6 mg/L (≈ 10.2 µM)
[4]
  MIC: 130 mg/L (≈ 201 µM)
Aerobacter Aerogenes
  MIC: 8.4 mg/L (≈ 13 µM)
